What was measured:
[1] = system: PIAS3-K442 methylation in MKN45 and AGS cells; experiment: Immunoblotting of PIAS3-K442 methylation in GC cell lines; format: cell-based; details: 20 µM or higher, 24-hour treatment
Method: Protein extraction from tissues or cells was performed by lysis buffer (20 mM Tris‐HCl (pH 7.5), 150 mM NaCl, 1 mM EDTA, 1 mM EGTA, 2.5 mM sodium pyrophosphate, 1 mM β‐glycerolphosphate, 1% Triton X‐100) supplemented with 1% phenylmethylsulfonyl fluoride (PMSF; Solarbio, P0100) and protease inhibitor cocktail (Apexbio, K1007) and lysed at 4 °C for 60 min, followed by centrifugation at 12000 g for 15 min at 4 °C. For Immunoblotting, the protein concentration was determined using the Pierce BCA Protein Assay Kit (Thermo Fisher Scientific, A55864). The protein samples were denatured by boiling in SDS‐PAGE loading buffer. For immunoprecipitation, antibodies were incubated with Dynabeads Protein G (Thermo, 10004D) at 4 °C for 4 h. The supernatant was then incubated with magnetic beads conjugated with antibodies or anti‐FLAG‐M2 magnetic beads (Sigma–Aldrich, M8823) at 4 °C overnight. Following incubation, the magnetic beads were washed three times with lysis buffer and then boiled in SDS‐PAGE loading buffer. The proteins were separated by sodium dodecyl sulfate polyacrylamide gel electrophoresis (SDS‐PAGE) with One‐Step PAGE Gel Fast Preparation Kit (Vazyme), and then transferred to the PVDF Membrane (Bio‐Rad). After blocking with a protein‐free rapid blocking buffer (Epizyme, PS108P) for 15 min, the membranes were incubated with primary antibodies at 4 °C overnight. […]

[2] = system: ICR mice; experiment: Acute toxicity at 125 mg/kg, 7-day observation and histopathology; format: in vivo
Method: For the acute toxic study, 8‐week‐old ICR mice (n = 6 per group) were administered a single intraperitoneal injection of LZQ‐02‐023‐01 at escalating doses. A vehicle‐treated group served as control. Survival was monitored continuously for 24 h postadministration. Additionally, another cohort of ICR mice (n = 5 per group) received a single intraperitoneal dose of LZQ‐02‐023‐01 at 125 mg/kg and were subsequently monitored daily for 7 days for clinical signs of toxicity, behavioral changes, body weight fluctuations, and mortality. At the conclusion of the observation period, animals were euthanized and subjected to a comprehensive gross necropsy. Major organs, including the liver, kidney, heart, lung, and spleen, were harvested for histopathological examination. For the chronic toxic study, 8‐week‐old ICR mice (n = 5 per group) received daily intraperitoneal injections of LZQ‐02‐023‐01 at a therapeutic dose of 40 mg/kg for 14 consecutive days. A vehicle‐treated group was included as a control. Throughout the treatment period, animals were monitored daily for clinical signs of toxicity and weighed every 2 days. At study termination, blood samples were collected for hematological and biochemical analyses. […]

[3] = system: gastric tumors of Cldn18-AT mice; experiment: Cldn18-AT advanced gastric cancer mouse model; format: in vivo; details: 40 mg/kg/day i.p., 28 days
Method: For the subcutaneous tumor model, 5 × 10⁶ MKN45 cells suspended in 100 µL of sterile PBS were injected subcutaneously into the flanks of BALB/c nude mice. When tumor volumes reached approximately 50 mm^3, mice were randomized into three groups (Vehicle control, LZQ‐02‐023‐01 at 20 mg/kg or 40 mg/kg, n = 10 per group). All treatments were administered via intraperitoneal injection once daily for 14 consecutive days. Tumor volumes were measured every 2 days using calipers and calculated using the formula: volume = [length × (width[2])]/2. Mice were sacrificed on day 24 for endpoint analyses. For genetically engineered mouse models (GEMMs), 25‐week‐old K19‐C2mE mice were randomized into Vehicle control (n = 8) and LZQ‐02‐023‐01 treatment (40 mg/kg, n = 8) groups. Both groups received daily intraperitoneal injections for 28 consecutive days. Similarly, 8‐week‐old Cldn18‐AT mice were induced with tamoxifen (100 mg/kg, T5648, Sigma) and, 2 weeks post‐induction, randomized into Vehicle (n = 6) and LZQ‐02‐023‐01 (40 mg/kg, n = 6) treatment groups. Treatments were administered daily via intraperitoneal injection for 28 days.
Paraffin sections were initially placed in an oven at 65 °C for 30 min to melt the paraffin. The slides were then immersed in two consecutive xylene baths for 10 min each to dewax the tissue, followed by hydration through a series of graded ethanol solutions. […]

Cc1ccc(Nc2ncc3c(n2)N(C)C(=O)N(c2cccc(N)c2)C3)cn1 [LZQ-02-023-01, Three‐(3‐aminophenyl)‐1‐methyl‐7‐((6‐methylpyridin‐3‐yl)amino)‐3,4‐dihydropyrimido [4,5‐d] pyrimidin‐2 (1H)‐one]
Methylation of PIAS3-K442 in GC cell lines [1]: decreased | Signs of overt toxicity ([2]; 7 days): did not observe any signs of overt toxicity | Histopathological analysis of major organs ([2]; end of 7-day period): no apparent tissue damage | Pathologic grade of lesions and proliferation (H&E, Ki-67) [3]: lower pathologic grade lesions and proliferation | Tumor burden and progression [3]: significantly reduced tumor burden and progression

— paper PMC12752606, “METTL10‐Mediated PIAS3 Methylation Links Purine Metabolism to Gastric Cancer Progression” (Advanced Science, 2025)
